Laboratory results as given in patent US5157123A, “S-(2-thiopyridyl)-L-cysteine, a heterobifunctional crosslinking reagent” (priority 1989, dated 1992).
Structures can show the parent of a compound that is named as a salt.

How the values were obtained:
[1] = Water solubility of crosslinkers; assay type: physicochemical; details: distilled water
[2] = system: human monoclonal IgM antibody 1688; assay: Incorporation of TPCH versus TPMPH into IgM antibody 1688 (periodate oxidation, pyridine-2-thione release at 343 nm); details: identical coupling conditions, FIG. 2
Description: Human IgM (2.5 mg) in 0.1M sodium acetate, pH 5.5 (1 mg IgM/ml) was oxidized in the presence of 10.7 mg (50 μmoles) NaIO4 and 7 mg (19.8 μmoles) of TPCH. After 20 minutes at 0° C. the reaction mixture was chromatographed on a Sephadex G-25 column to remove access NaIO4 and uncoupled TPCH. The derivatized IgM molecules were eluted with 0.1M sodium phosphate, 0.1M sodium chloride, pH 7.5, and stored at 4° C. The extent of modification was determined to be 17 TPCH molecules per IgM by monitoring the release of pyridine-2-thione at 343 nm during incubation of the derivatized antibody in the presence of 10 mM dithiothreitol as described in J. Carlsson, H. Drevin, and R. Axen, Biochem. J., vol. […]
Human IgM (2.5 mg) was oxidized in 1.25 ml of 0.1M sodium acetate, pH 5.5, in the presence of 5.3 mg sodium periodate with either 6.9 mg (20 μmoles) of TPCH trihydrochloride (M.W.=353.5 daltons) or 4.4 mg (20 μmoles) of TPMPH (M.W.=229.3 daltons) at 0° C. […] The derivatized IgM molecules were eluted with 0.1M sodium phosphate, 0.1 M sodium chloride, pH 7.5 The extent of modification was determined as described above.
Human IgM (2.5 mg) was oxidized in the presence of 0.27 mg sodium periodate under identical conditions as described above. The extent of derivatization was determined after 20 minutes of incubation using the procedure described above.

Structure (SMILES) | water solubility (concentration to which it can be easily dissolved) [1] [mM] | maximum solubility [1] [mM] | increase in time required for incorporation of comparable amounts of crosslinker per antibody, versus TPCH [2] [fold]
NNC(=O)[C@@H](N)CSSc1ccccn1 [TPCH, S-(2-Thiopyridyl)-L-Cysteine Hydrazide Trihydrochloride] | ≥ 1000 | – | –
NNC(=O)CCSSc1ccccn1 [TPMPH, S-(2-thiopyridyl)-mercaptopropionic acid hydrazide] | – | 150 | ~3
